Like-named read-outs stand apart in the source and are kept apart here.
What was measured:
[1] = Pharmacokinetics in mice after oral or intravenous dosing; type: in vivo
Protocol: Plasma concentrations were measured by LC-MS/MS. Non-compartmental PK parameters were calculated using Phoenix WinNonlin. Human half-life predictions were derived by allometric scaling for half-life (t1/2): t1/2,human = t1/2,mouse × (Whuman/Wmouse)^0.25, where W = body weight. The exponent 0.25 is commonly used for time-based pharmacokinetic parameters. We assume an average mouse weight of 0.025 kg and an average human weight of 70 kg.

[2] = Cellular cytotoxicity, hepatocyte nuclear counts; type: cell-based, simian; details: simian, primary cryopreserved simian hepatocytes (lot OQB); cellular cytotoxicity
Description: (§1) Primary cryopreserved hepatocytes were selected based on host-parasite compatibility: primary simian hepatocytes (lot OQB) for P. cynomolgi and human hepatocytes (lot BGW) for P. falciparum (BioIVT Inc., Baltimore, MD, USA). Cells were thawed according to the manufacturer’s protocol and seeded into 384-well collagen-coated assay plates (Greiner Bio-One, Monroe, NC, USA) using InVitroGro CP plating medium (BioIVT). Seeding densities were optimized for uniform monolayer formation, and hepatocytes were allowed to adhere for 24–48 hours before infection. Sporozoites were added at a 1:1.1 hepatocyte-to-sporozoite ratio within 48 hours post-seeding. Automated robotic systems were used for media changes and compound additions to ensure assay consistency and minimize variability associated with manual pipetting.
Test compounds (PfPKG inhibitors) and assay drug controls (KDU-691 and tafenoquine) were solubilized in DMSO or PBS and serially diluted into 8- or 12-point, 2- or 3-fold series, achieving final assay concentrations ranging from 20 µM to 0.019 µM. Compounds were introduced using a calibrated pin tool controlled by robotic arms (V&P Scientific), ensuring a 1:1000 dilution into assay wells. Media were replenished daily with fresh drug-containing HCM. Compounds were added 1-hour post-infection (p.i.) (day 0) and administered daily for 3 days. Cells were fixed on day 6 p.i. of P. falciparum culture and day 8 for P. cynomolgi infected culture, coinciding with liver stage schizont maturation.
(§2) High-content imaging was performed using the Operetta CLS system (Revvity) and image analysis was performed with Harmony software version 4.9 (Revvity, Waltham, MA, USA). Images were acquired at 10x or 20x magnification using DAPI and TRITC fluorescence channels. Following the established protocol, parasites were classified as hypnozoites or schizonts based on fluorescence intensity (mean and maximum), morphological features (cell roundness and size), and segmentation criteria. Hepatocyte nuclei were identified using Hoechst 33342 staining. Background signal was captured in uninfected, stained wells and subjected to the same parasite detection algorithm. Estimate erroneous parasite counts were then subtracted from infected well counts. Hepatocyte viability was determined by quantifying nuclear counts per well using Hoechst stain intensity thresholds. […] An in-house built Python-based image analysis script identified parasite objects using predefined fluorescence intensity thresholds. […] Parasite size was quantified by calculating the average object area (µm²) of validated parasite structures per well. […] Dose-response inhibition and IC50 were calculated relative to in-plate negative controls (DMSO-treated wells). […]

[3] = target: T1, CIT (Homo sapiens, UniProt O14578); assay: KdElect binding affinity assay; details: read-out: CIT Experimental Kd
T1 construct: purchased Eurofins (DiscoverX)
T1 sequence (O14578 whole entry): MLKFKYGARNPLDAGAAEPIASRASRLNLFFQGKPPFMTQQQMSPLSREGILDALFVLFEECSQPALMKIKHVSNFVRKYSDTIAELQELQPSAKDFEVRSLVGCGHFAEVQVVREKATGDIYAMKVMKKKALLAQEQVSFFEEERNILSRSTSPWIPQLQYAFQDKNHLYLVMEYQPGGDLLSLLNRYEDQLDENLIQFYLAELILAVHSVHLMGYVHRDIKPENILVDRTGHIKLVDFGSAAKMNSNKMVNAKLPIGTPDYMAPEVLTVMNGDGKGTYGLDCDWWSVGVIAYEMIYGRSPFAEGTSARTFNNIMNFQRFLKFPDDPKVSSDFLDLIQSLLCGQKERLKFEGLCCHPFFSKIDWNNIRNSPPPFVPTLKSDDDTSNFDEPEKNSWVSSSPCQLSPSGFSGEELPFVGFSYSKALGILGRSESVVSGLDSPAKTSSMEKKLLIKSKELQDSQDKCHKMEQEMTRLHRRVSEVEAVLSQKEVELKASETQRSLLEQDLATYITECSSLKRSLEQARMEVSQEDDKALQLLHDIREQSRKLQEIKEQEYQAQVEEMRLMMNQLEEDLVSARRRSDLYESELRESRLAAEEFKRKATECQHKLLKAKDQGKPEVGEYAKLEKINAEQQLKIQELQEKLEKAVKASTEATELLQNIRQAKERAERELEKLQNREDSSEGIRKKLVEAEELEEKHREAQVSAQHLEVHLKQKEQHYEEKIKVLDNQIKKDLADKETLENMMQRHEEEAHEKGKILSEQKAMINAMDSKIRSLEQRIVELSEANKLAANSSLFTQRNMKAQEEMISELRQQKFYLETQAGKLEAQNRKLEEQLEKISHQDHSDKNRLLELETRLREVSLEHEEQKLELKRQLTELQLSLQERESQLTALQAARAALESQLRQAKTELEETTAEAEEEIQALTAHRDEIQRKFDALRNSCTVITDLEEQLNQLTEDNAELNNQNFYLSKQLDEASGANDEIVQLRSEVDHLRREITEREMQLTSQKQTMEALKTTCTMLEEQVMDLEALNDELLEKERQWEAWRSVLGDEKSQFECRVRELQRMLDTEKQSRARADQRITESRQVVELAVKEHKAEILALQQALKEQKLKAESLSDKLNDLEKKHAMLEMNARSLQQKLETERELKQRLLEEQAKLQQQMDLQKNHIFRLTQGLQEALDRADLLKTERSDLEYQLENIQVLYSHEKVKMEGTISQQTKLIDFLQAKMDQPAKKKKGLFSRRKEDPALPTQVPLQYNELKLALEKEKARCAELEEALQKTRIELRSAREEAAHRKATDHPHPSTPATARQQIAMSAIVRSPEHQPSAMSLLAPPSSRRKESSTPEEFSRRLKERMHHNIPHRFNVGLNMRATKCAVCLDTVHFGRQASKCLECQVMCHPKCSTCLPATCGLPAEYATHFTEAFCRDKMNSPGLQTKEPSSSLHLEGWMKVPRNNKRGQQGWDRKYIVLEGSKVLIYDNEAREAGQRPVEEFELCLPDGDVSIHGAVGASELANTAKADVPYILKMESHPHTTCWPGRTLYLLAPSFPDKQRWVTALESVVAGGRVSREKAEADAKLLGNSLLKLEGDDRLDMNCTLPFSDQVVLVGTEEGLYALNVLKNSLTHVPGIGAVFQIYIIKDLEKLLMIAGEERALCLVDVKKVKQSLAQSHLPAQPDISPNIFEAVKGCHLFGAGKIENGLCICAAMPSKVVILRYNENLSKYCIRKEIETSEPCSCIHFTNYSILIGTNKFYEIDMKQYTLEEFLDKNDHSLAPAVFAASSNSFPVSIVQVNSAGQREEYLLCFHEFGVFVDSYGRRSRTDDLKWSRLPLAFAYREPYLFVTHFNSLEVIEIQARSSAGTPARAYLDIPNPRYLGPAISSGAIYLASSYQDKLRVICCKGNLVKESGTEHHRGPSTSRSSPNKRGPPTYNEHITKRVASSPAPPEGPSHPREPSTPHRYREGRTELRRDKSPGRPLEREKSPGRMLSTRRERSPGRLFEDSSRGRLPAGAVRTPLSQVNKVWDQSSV
Protocol: (§3) Off-target kinase inhibition was assessed using the DiscoverX scanMAX (Eurofins) panel at 1 µM compound concentration. Binding affinities of CIT, ROCK1 and ROCK2 were evaluated using the KdElect assay (Eurofins).

[4] = target: T2, ROCK2 (Homo sapiens, UniProt O75116); assay: KdElect binding affinity assay; details: read-out: ROCK2 Experimental Kd
T2 construct: purchased Eurofins (DiscoverX)
T2 sequence (O75116 whole entry): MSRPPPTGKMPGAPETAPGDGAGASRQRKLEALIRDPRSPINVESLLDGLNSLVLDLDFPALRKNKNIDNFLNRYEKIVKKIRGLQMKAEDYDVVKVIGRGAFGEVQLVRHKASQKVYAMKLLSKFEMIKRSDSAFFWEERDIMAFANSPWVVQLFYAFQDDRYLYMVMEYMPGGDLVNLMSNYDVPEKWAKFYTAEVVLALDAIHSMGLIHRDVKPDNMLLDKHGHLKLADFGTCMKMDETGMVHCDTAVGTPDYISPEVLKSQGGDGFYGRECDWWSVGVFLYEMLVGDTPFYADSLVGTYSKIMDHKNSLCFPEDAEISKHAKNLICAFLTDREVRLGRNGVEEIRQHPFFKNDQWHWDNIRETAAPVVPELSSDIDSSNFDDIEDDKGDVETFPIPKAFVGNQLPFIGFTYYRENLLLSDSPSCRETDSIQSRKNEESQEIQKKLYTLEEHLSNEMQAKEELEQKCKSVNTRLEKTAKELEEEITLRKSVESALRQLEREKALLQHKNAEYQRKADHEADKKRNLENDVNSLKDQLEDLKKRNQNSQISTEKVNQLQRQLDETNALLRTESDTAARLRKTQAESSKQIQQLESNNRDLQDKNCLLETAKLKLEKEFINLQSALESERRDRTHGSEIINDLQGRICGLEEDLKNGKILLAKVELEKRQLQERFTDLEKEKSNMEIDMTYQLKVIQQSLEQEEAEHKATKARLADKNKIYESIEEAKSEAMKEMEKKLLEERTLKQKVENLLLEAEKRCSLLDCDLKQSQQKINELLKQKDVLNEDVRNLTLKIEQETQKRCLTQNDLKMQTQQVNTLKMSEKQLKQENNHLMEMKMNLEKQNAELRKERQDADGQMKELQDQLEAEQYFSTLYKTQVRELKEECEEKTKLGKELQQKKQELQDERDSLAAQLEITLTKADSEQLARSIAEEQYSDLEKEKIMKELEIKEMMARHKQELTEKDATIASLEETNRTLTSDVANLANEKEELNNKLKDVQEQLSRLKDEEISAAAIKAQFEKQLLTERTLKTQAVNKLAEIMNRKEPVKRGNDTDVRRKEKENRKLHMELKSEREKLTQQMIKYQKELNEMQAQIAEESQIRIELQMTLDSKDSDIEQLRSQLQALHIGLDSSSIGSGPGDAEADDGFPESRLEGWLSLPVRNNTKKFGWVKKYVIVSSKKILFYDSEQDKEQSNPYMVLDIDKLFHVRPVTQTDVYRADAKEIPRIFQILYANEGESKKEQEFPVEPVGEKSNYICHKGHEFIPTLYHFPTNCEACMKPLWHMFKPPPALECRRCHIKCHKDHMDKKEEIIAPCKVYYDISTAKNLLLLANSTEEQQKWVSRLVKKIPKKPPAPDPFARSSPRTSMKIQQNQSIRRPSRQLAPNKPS
Protocol: as §3

[5] = tested on: primary human hepatocytes; assay: Cellular cytotoxicity, hepatocyte nuclear counts; type: cell-based; details: primary human hepatocytes
Description: as §1
(§4) Test compounds (PfPKG inhibitors) and assay drug controls (KDU-691 and tafenoquine) were solubilized in DMSO or PBS and serially diluted into 8- or 12-point, 2- or 3-fold series, achieving final assay concentrations ranging from 20 µM to 0.019 µM. […]
as §2, with “Hepatocyte nuclei were identified using Hoechst 33342 staining. Background signal was captured in uninfected, stained wells and subjected to the same parasite detection algorithm. Estimate erroneous parasite counts were then subtracted from infected well counts.” left out

[6] = Cellular cytotoxicity, hepatocyte nuclear counts; type: cell-based, human; details: human, primary cryopreserved human hepatocytes (lot BGW); cellular cytotoxicity
Description: as §1, §4
as §2, with “Hepatocyte nuclei were identified using Hoechst 33342 staining. Background signal was captured in uninfected, stained wells and subjected to the same parasite detection algorithm. Estimate erroneous parasite counts were then subtracted from infected well counts.” left out

[7] = tested on: P. berghei sporozoites (PbLuc-GFP); assay: In vivo chemoprotective efficacy against sporozoite liver infection; parameters: species or system Plasmodium berghei in mice
[8] = tested on: P. falciparum sporozoites; assay: Sporozoite infection of primary human hepatocytes, high-content imaging; type: cell-based, Plasmodium falciparum; details: Plasmodium falciparum, Hepatocyte
Protocol: Liver stage antimalarial activity was evaluated using sporozoites from P. falciparum (NF54 strain) and P. cynomolgi bastianellii (B strain). P. falciparum-infected Anopheles stephensi mosquitoes were reared at WRAIR, while P. cynomolgi-infected Anopheles dirus mosquitoes were obtained from the Armed Forces Research Institute of Medical Sciences (AFRIMS), Thailand. Sporozoites were isolated by dissecting salivary glands under sterile conditions, followed by gentle mechanical disruption. Freshly isolated sporozoites were immediately used for hepatocyte infection. […]
Cells were fixed using 4% paraformaldehyde for 20 minutes at room temperature, followed by three PBS washes, and stored at 4°C until further processing. Parasite detection was performed using species-specific primary antibodies, with P. cynomolgi parasites labeled using a mouse monoclonal anti-Plasmodium GAPDH antibody (1.6 μg/mL, European Malaria Reagent Repository) and P. falciparum parasites detected using a rabbit polyclonal anti-PfHSP70 antibody (1:70 dilution, LS Bio, USA). […]
High-content imaging was performed using the Operetta CLS system (Revvity) and image analysis was performed with Harmony software version 4.9 (Revvity, Waltham, MA, USA). Images were acquired at 10x or 20x magnification using DAPI and TRITC fluorescence channels. […]

[9] = mouse, plasma, iv, 10 mg/kg, mice, IV 10 mg/kg, average of 3 mice
[10] = mouse, plasma, po, 10 mg/kg, mice, PO 10 mg/kg, average of 3 mice
[11] = Intravenous, 10 mg/kg x1 (-0.5 hpi)

With `C[C@@H]1CN(C)CC[C@@H]1c1cc(-c2ccncc2)c(-c2ccc(F)cc2)[nH]1.Cl.Cl` [RUPB-61, 4-{5-[(3S,4S)-1,3-Dimethylpiperidin-4-yl]-2-(4-fluorophenyl)-1H-pyrrol-3-yl}pyridine Dihydrochloride] the “human half-life range by allometric scaling” value ([1]; exponent 0.25, mouse 0.025 kg, human 70 kg) was 67.5 to 90 h, the “half-life in humans by allometric scaling” value ([1]; humans, scaled from mouse oral half-life) was 2 to 4 days and the plasma exposure maintained ([1]; mice, 10 mg/kg, for 24 h) was > 100 nM. For the same molecule, the Vss obs ([1]; mice, IV 10 mg/kg, average of 3 mice, 10 mg/kg) was 47.29 L/kg, the Bioavailability ([1]; mice, PO vs IV 10 mg/kg, 10 mg/kg) was 91 %F and the AUC(0-t) [1, 9] was 7.43 µM·h. For the same molecule, the half-life [1, 9] was 707 min, the AUC(0-inf) ([1]; mouse, plasma, iv, 10 mg/kg, mice, IV 10 mg/kg, average of 3 mice, read-out: AUC INF_obs) was 9.8 µM·h and the clearance ([1]; mouse, plasma, iv, 10 mg/kg, mice, IV 10 mg/kg, average of 3 mice, read-out: Cl_obs) was 49.2 mL/min/kg. For the same molecule, the Vd ([1]; mouse, plasma, iv, 10 mg/kg, mice, IV 10 mg/kg, average of 3 mice, read-out: Vss obs) was 47.3 L/kg, the clearance ([1]; mouse, plasma, other: oral and intravenous, 10 mg/kg, mice, 10 mg/kg oral and intravenous, read-out: relative clearance) was ~50 mL/min/kg and the Cmax [1, 10] was 630 nM. For the same molecule, the Tmax [1, 10] was 4.17 h, the AUC(0-inf) ([1]; mouse, plasma, po, 10 mg/kg, mice, PO 10 mg/kg, average of 3 mice, read-out: AUCINF_obs) was 8.9 µM·h and the CC50 at 3 days [2] was > 20 µM. The Kd [3] was 5.2 nM, the Kd [4] was 13 nM and the “cytotoxicity against PHH” value [5] was “no cytotoxicity”. For the same molecule, the CC50 at 3 days [6] was > 20 µM, the “No. of mice patent by D21/ No. of mice inoculated” value [7, 11] was 0/5 and the “Prepatent period mean ± sd” value [7, 11] was “negative”. The “No. of mice patent by D21/ No. of mice inoculated” value ([7]; Oral, 10 mg/kg x1 (-3 hpi)) was 0/5, the “Prepatent period mean ± sd” value ([7]; Oral, 10 mg/kg x1 (-3 hpi)) was “negative” and the “mice developing detectable blood stage infection in the 3-week monitoring period” value ([7]; single dose 10 mg/kg, PO (-3 hpi) and IV (-0.5 hpi), 10 mice) was “none”. The IC50 [8] was 79 nM.
